Where “and” joins values, the source holds several entries; their conditions need not be identical. Identical values can stand only once.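 Following 48 hours of exposure in 96-well plates, responses at five concentrations were used to interpolate endpoints linearly. Abbreviation: GI50, concentration required for 50% inhibition of growth. TGI: total growth inhibition.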
What was measured:
Test in all cases: NCI tumour cell line growth inhibition, 48 h
T-47D breast = tested on: T-47D breast
MALME-3M melanoma = tested on: MALME-3M melanoma
HCT-116 colon = tested on: HCT-116 colon
SNB-75 CNS = tested on: SNB-75 CNS
A498 renal = tested on: A498 renal
SF-295 CNS = tested on: SF-295 CNS
MCF7 breast = tested on: MCF7 breast
HT29 colon = tested on: HT29 colon
SK-OV-3 ovarian = tested on: SK-OV-3 ovarian
CAKI-1 renal = tested on: CAKI-1 renal

SMILES	GI50 (T-47D breast)	TGI (T-47D breast)	GI50 (MALME-3M melanoma)	TGI (MALME-3M melanoma)	GI50 (HCT-116 colon)	TGI (HCT-116 colon)	GI50 (SNB-75 CNS)	TGI (SNB-75 CNS)	GI50 (A498 renal)	TGI (A498 renal)	GI50 (SF-295 CNS)	TGI (SF-295 CNS)	GI50 (MCF7 breast)	TGI (MCF7 breast)	GI50 (HT29 colon)	TGI (HT29 colon)	GI50 (SK-OV-3 ovarian)	TGI (SK-OV-3 ovarian)	GI50 (CAKI-1 renal)	TGI (CAKI-1 renal)
C#Cc1cccc(Nc2ncnc3cc(OC)c(OCCCCCCC(=O)NO)cc23)c1	0.0465 µM	0.495 µM	0.037 µM	0.763 µM	0.0791 µM	3.33 µM	0.0267 µM	0.468 µM	0.162 µM	0.662 µM	0.311 µM	2.18 µM	0.19 µM	3.5 µM	0.253 µM	5.33 µM	0.208 µM	1.03 µM	0.261 µM	3.04 µM
CNCCCn1cc(C2=C(c3cn(C)c4ccccc34)C(=O)NC2=O)c2ccccc21	5.66 µM	15.1 µM	5.37 µM	10.4 µM	3.17 µM	12.3 µM	0.281 µM	2.95 µM	4.29 µM	8.35 µM	4.73 µM	10.3 µM	2.74 µM	6.93 µM	1.14 µM	12.2 µM	4.26 µM	22.5 µM	4.13 µM	13.2 µM
COc1ccc(N2C(=O)C(c3ccccc3)(c3ccccc3)C23C(=O)N(C)c2ccccc23)cc1 (configuration not stated)	> 100 µM	> 100 µM	> 100 µM	> 100 µM	> 100 µM	> 100 µM	89.1 µM	> 100 µM	> 100 µM	> 100 µM	> 100 µM	> 100 µM	> 100 µM	> 100 µM	> 100 µM	> 100 µM	> 100 µM	> 100 µM	> 100 µM	> 100 µM
CC[C@]12C=CCN3CC[C@@]4(c5ccc(OC)cc5N(C)[C@H]4[C@@](O)(C(=O)OC)[C@@H]1OC(=O)CCC[P+](c1ccccc1)(c1ccccc1)c1ccccc1)[C@@H]32	0.29 µM and 0.224 µM	6.56 µM and 0.977 µM	0.338 µM and 0.493 µM	1.37 µM and 1.78 µM	0.727 µM and 0.627 µM	5.59 µM and 10.4 µM	0.554 µM and 0.218 µM	3.58 µM and 1.23 µM	1.71 µM and 1.97 µM	4.87 µM and 5.7 µM	1.49 µM and 2.22 µM	4.66 µM and 5.65 µM	0.254 µM and 0.354 µM	5.21 µM and 1.79 µM	0.334 µM and 0.403 µM	4.91 µM and 2.78 µM	0.894 µM and 0.439 µM	3.8 µM and 2.46 µM	4.67 µM and 2.8 µM	12.3 µM and 10.4 µM
Clc1coc2nc3ccccc3c(Nc3ccc4c(c3)OCO4)c12	13.4 µM	> 100 µM	0.795 µM	8.67 µM	0.443 µM	11.8 µM	4.36 µM	> 100 µM	1.14 µM	5.82 µM	1.21 µM	4.42 µM	1.81 µM	> 100 µM	0.601 µM	> 100 µM	2.24 µM	> 100 µM	1.51 µM	10.6 µM
Cn1cc(C2=C(c3ccc4ccccc4c3)C(=O)NC2=O)c2ccccc21	> 25 µM	> 25 µM	> 22.1 µM	> 25 µM	15.6 µM	> 25 µM	7.47 µM	> 25 µM	> 25 µM	> 25 µM	> 23.5 µM	> 25 µM	2.19 µM	> 25 µM	9.87 µM	> 25 µM	> 25 µM	> 25 µM	> 16.7 µM	> 25 µM
O=C1NC(=Nc2ccccc2)S/C1=C\c1ccc2ncccc2c1	12.3 µM	> 25 µM	> 18.1 µM	> 25 µM	1.14 µM	> 25 µM		> 25 µM		> 18.4 µM		> 7.02 µM	0.953 µM	> 25 µM	> 25 µM	> 25 µM	> 25 µM	> 25 µM	> 25 µM	> 25 µM
O=C(c1ccccc1)c1cc(Cl)ccc1OCCCCN1CCN(CCCCOc2ccc(Cl)cc2C(=O)c2ccccc2)CC1	4.59 µM	22.4 µM	1.61 µM	3.77 µM	1.79 µM	3.38 µM	6.98 µM	24.9 µM	15.2 µM	28.6 µM	2 µM	4.15 µM	1.98 µM	4.83 µM	2.59 µM	7.66 µM	17.1 µM	31.9 µM	4.08 µM	15.1 µM
C[As](C)SC1OC(CO)C(O)C1O (configuration not stated)	3.21 µM	> 100 µM	0.0847 µM	0.65 µM	0.302 µM	1.24 µM	0.912 µM	2.62 µM	0.516 µM	3.62 µM	2.28 µM	7.16 µM	0.324 µM	1.3 µM	0.668 µM	> 100 µM	6.42 µM	22.4 µM	0.0487 µM	0.402 µM

— PubChem BioAssay (NCI)
